Values joined by “and” are separate entries in the source; they are usually repeats but may differ in a detail not shown here. Equal values may be shown once.
Test system: 598228-144-R-J1-PDC complex spheroid viability
Assay: Anticancer human tumor 598228-144-R-J1-PDC patient-derived serous endometrial adenocarcinoma cell line growth inhibition [GQUAD]
Settings: for viability, T/C: stronger effect = lower value
Source text: DNA G-quadruplex Stabilizer Agents in Combinations in Complex Spheroids
A high-throughput screen of multi-cell type tumor spheroids was designed to identify active combinations of DNA G-quadruplex stabilizer agents and targeted small molecules. Complex spheroids include a stromal component modeled by human endothelial cells (HUVEC) and fibroblasts modeled by human mesenchymal stem cells (MSCs). The concentration ranges selected for each drug and investigational agent were based upon clinically achievable concentrations if the clinical Cmax of the agent was known.
Compounds. The drugs and investigational agents: pidnarulex (CX-5461; NSC782164), APTO-253 (NSC789042), BRACO-19 (NSC847499), peposertib (NSC802822), ceralasertib (NSC780249), elimusertib (NSC800525), camonsertib (NSC841442), AZD-1390 (NSC803789), olaparib (NSC753686), talazoparib (NSC767125), ART-558 (NSC835418), sotorasib (NSC818433), MRTX-1133 (NSC836407), SN-38 (NSC673596), topotecan (NSC609699), etoposide (NSC141540), doxorubicin (NSC123127), gemcitabine (NSC613327), 5-fluorouracil (NSC19893), paclitaxel (NSC125973), vemurafenib (NSC761431), panobinostat (NSC761190), R-306465 (JNJ-16241199; NSC773264), adavosertib (NSC754352), TP-3654 (NSC805149), carboplatin (NSC241240), KSQ-4279 (NSC840948), and staurosporine (NSC755774) were obtained from the National Cancer Institute (NCI) Developmental Therapeutics Program Chemical Repository (34). The FDA-approved anticancer drug set is available from the NCI Developmental Therapeutics Program. […] The stock solutions were prepared in dimethyl sulfoxide (DMSO, Sigma-Aldrich, St. Louis, MO, cat. D2650) at 800-fold the tested concentration and stored at -70 degrees C prior to their use. All drugs and investigational agents were tested over a range starting from a high concentration at or near the clinical Cmax and decreasing in half-log increments. If the clinical Cmax for an agent had not been determined, the highest concentration tested was 10 microM.
2.3 Cell Culture. All cells were maintained in an incubator at 37 degrees C and 5% CO2 with 95% humidity. The PDC lines were cultured according to standard operating procedures established by the NCI PDMR. All PDCs were thawed and cultured in Matrigel-coated flasks prepared with a working solution of 1X Ham's F-12 nutrient mix, without supplementation (Invitrogen, cat. 11765054), 100 U/mL penicillin-streptomycin (Invitrogen, cat. 15140122), and 2.5% Matrigel (Corning Inc., cat. 354248) for the first three passages. The 857933-349-R-J2-PDC line was cultured in 6C/Colon 1B media, which includes advanced DMEM/F-12 (Thermo Fisher Scientific, cat. 12634028), 10 mM HEPES (Thermo Fisher Scientific, cat. 15630080), 1X GlutaMAX supplement (Thermo Fisher Scientific, cat. 35050061), 0.1 mg/mL primocin (InvivoGen, cat. ant-pm-2), 10% defined fetal bovine serum, heat inactivated (HyClone Laboratories Inc., cat. SH30070.03HI), 50% L-WRN conditioned media (ATCC, cat. CRL-3276), 1.25 mM N-Acetyl-L-cysteine (Sigma-Aldrich, cat. A9165), 10 mM nicotinamide (Sigma-Aldrich, cat. N0636), 1X B-27 supplement (Thermo Fisher Scientific, cat. 17504044), 1X N-2 supplement (Thermo Fisher Scientific, cat. 17502048), 10 microM Y-27632 dihydrochloride (Tocris Bioscience, cat. 1254), and 50 ng/mL human EGF recombinant protein (Thermo Fisher Scientific, cat. PHG0311). The 485176-168-R4-J1-PDC line was cultured in Panc media, which includes all 6C/Colon 1B media components plus 100 ng/mL human FGF-10 (Thermo Fisher Scientific, cat. 100-26), 500 nM SB-431542 (Selleckchem, cat. S1067), and gastrin (Tocris, cat. 3006).
[…]
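Also: spheroids exposed to the agents for one week before reading.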
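For viability, T/C in this document: percent of vehicle DMSO control viability so 100% = untreated growth.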

Compound: CC(=O)O[C@H]1C(=O)[C@@]2(C)[C@H]([C@H](OC(=O)c3ccccc3)[C@]3(O)C[C@H](OC(=O)[C@H](O)[C@@H](NC(=O)c4ccccc4)c4ccccc4)C(C)=C1C3(C)C)[C@]1(OC(C)=O)CO[C@@H]1C[C@@H]2O
- viability, T/C (compound 0.0316 µM): 57.9% and 47.5% and 53%
- viability, T/C (compound 0.1 µM): 41.1% and 46.1% and 48.6%
- viability, T/C (compound 0.316 µM): 52.3% and 37.7% and 45%
- viability, T/C (compound 1 µM): 42.3% and 36.8% and 38.9%
- viability, T/C (compound 3.16 µM): 47.5% (2×) and 40.5%
- viability, T/C (compound 10 µM): 49.1% and 43% and 39.1%
- IC50 (curve of compound): 80.4 nM and < 31.6 nM and 50.4 nM

Compound: O=c1[nH]cc(F)c(=O)[nH]1
- viability, T/C (compound 0.0316 µM): 133% and 103% and 95.3%
- viability, T/C (compound 0.1 µM): 97.8% and 107% and 117%
- viability, T/C (compound 0.316 µM): 85.5% and 104% and 88.7%
- viability, T/C (compound 1 µM): 105% and 96.9% and 91.4%
- viability, T/C (compound 3.16 µM): 97% and 95.8% and 105%
- viability, T/C (compound 10 µM): 86.7% and 77.5% and 79.2%
- IC50 (curve of compound): > 10000 nM

Compound: O=C(NO)c1cnc(N2CCN(S(=O)(=O)c3ccc4ccccc4c3)CC2)nc1 + CN(C)c1ccc(Nc2c3ccc(NC(=O)CCN4CCCC4)cc3nc3cc(NC(=O)CCN4CCCC4)ccc23)cc1
- IC50 (curve of first compound, second compound 0.0316 µM): 72.9 nM
- IC50 (curve of first compound, second compound 0.1 µM): 104 nM
- IC50 (curve of first compound, second compound 0.316 µM): 100 nM
- IC50 (curve of first compound, second compound 1 µM): 125 nM
- IC50 (curve of first compound, second compound 3.16 µM): 83.2 nM
- IC50 (curve of first compound, second compound 10 µM): 52.6 nM
- viability, T/C (second compound 0.0316 µM, first compound 0.0316 µM): 79.4%
- viability, T/C (second compound 0.0316 µM, first compound 0.1 µM): 35.2%
- viability, T/C (second compound 0.0316 µM, first compound 0.316 µM): 26.3%
- viability, T/C (second compound 0.0316 µM, first compound 1 µM): 0.43%
- viability, T/C (second compound 0.0316 µM, first compound 3.16 µM): 0.48%
- viability, T/C (second compound 0.0316 µM, first compound 10 µM): 0.27%
- viability, T/C (second compound 0.1 µM, first compound 0.0316 µM): 87.8%
- viability, T/C (second compound 0.1 µM, first compound 0.1 µM): 49.5%
- viability, T/C (second compound 0.1 µM, first compound 0.316 µM): 24%
- viability, T/C (second compound 0.1 µM, first compound 1 µM): 0.39%
- viability, T/C (second compound 0.1 µM, first compound 3.16 µM): 0.39%
- viability, T/C (second compound 0.1 µM, first compound 10 µM): 0.25%
- viability, T/C (second compound 0.316 µM, first compound 0.0316 µM): 81.3%
- viability, T/C (second compound 0.316 µM, first compound 0.1 µM): 49.5%
- viability, T/C (second compound 0.316 µM, first compound 0.316 µM): 18.3%
- viability, T/C (second compound 0.316 µM, first compound 1 µM): 0.5%
- viability, T/C (second compound 0.316 µM, first compound 3.16 µM): 0.26%
- viability, T/C (second compound 0.316 µM, first compound 10 µM): 0.42%
- viability, T/C (second compound 1 µM, first compound 0.0316 µM): 92.3%
- viability, T/C (second compound 1 µM, first compound 0.1 µM): 56.6%
- viability, T/C (second compound 1 µM, first compound 0.316 µM): 21.2%
- viability, T/C (second compound 1 µM, first compound 1 µM): 0.43%
- viability, T/C (second compound 1 µM, first compound 3.16 µM): 0.22%
- viability, T/C (second compound 1 µM, first compound 10 µM): 0.38%
- viability, T/C (second compound 3.16 µM, first compound 0.0316 µM): 108%
- viability, T/C (second compound 3.16 µM, first compound 0.1 µM): 38.9%
- viability, T/C (second compound 3.16 µM, first compound 0.316 µM): 8.39%
- viability, T/C (second compound 3.16 µM, first compound 1 µM): 0.37%
- viability, T/C (second compound 3.16 µM, first compound 3.16 µM): 0.29%
- viability, T/C (second compound 3.16 µM, first compound 10 µM): 0.29%
- viability, T/C (second compound 10 µM, first compound 0.0316 µM): 73.7%
- viability, T/C (second compound 10 µM, first compound 0.1 µM): 19.8%
- viability, T/C (second compound 10 µM, first compound 0.316 µM): 5.5%
- viability, T/C (second compound 10 µM, first compound 1 µM): 0.39%
- viability, T/C (second compound 10 µM, first compound 3.16 µM): 0.39%
- viability, T/C (second compound 10 µM, first compound 10 µM): 0.34%

Compound: CC(C)(O)C1CCC(Nc2ccc3ncc(-c4cccc(C(F)(F)F)c4)n3n2)CC1 (stereo not drawn)
- viability, T/C (compound 0.0316 µM): 112% and 97.2% and 85.6%
- viability, T/C (compound 0.1 µM): 104% and 82.3% and 99.3%
- viability, T/C (compound 0.316 µM): 99.6% and 94.8% and 96.7%
- viability, T/C (compound 1 µM): 94% and 78.5% and 75.3%
- viability, T/C (compound 3.16 µM): 28% and 26.1% and 20.6%
- viability, T/C (compound 10 µM): 31.7% and 25.3% and 24.3%
- IC50 (curve of compound): 2200 nM and 1870 nM and 1730 nM

— PubChem BioAssay AID2060506 (Molecular Pharmacology Branch, DTP, NCI, 2025)
